Laboratory results reported in publication PMC4436593, “Endoplasmic reticulum stress-independent activation of unfolded protein response kinases by a small molecule ATP-mimic” (eLife, 2015).

Tests used:
[1] = target: T1, PERK cytosolic domain (535–1093 Δ660–868) (Homo sapiens, UniProt Q9NZJ5, DEL660-868); assay: In vitro PERK cross-linking assay; type: biochemical; conditions: PERK 2 μM; IPAx 50 μM
T1 construct: GST (N, cleaved yes); made in house; host or cells: E. coli BL21 star (DE3), co-expressed with lambda phosphatase
T1 sequence (Q9NZJ5 with tags, fused parts or gaps DEL660-868): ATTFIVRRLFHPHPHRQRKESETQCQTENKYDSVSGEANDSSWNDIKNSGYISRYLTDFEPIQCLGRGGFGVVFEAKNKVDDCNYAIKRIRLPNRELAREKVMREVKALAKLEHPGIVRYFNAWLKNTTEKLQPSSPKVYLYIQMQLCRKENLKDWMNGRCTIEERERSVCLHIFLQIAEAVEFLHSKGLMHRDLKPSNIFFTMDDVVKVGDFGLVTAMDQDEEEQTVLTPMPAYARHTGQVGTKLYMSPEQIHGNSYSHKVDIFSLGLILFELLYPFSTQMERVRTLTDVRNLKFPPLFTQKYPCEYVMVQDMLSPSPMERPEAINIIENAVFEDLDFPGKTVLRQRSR
Experimental: A solution of PERK cytosolic domain (535–1093 Δ660–868) (2 μM) was incubated with IPA or IPAx for 15 min before the addition of 250 μM of the amino group-reactive cross-linking agent bis[sulfosuccinimidyl] […] (BS2g-d0, Thermo Scientific). After 30-min incubation at room temperature Tris-HCl pH 7.5 was added to a final concentration of 55 mM. Samples were then boiled in Laemmli sample buffer and loaded into an Any kD Mini-protean TGX gel (Bio Rad). Cross-linked protein was visualized using Colloidal Coomassie G-250 stain.

IRE1α-KR43 = IRE1α-KR43 (Homo sapiens, UniProt O75460); assay: IRE1α-KR43 RNA cleavage assay with 5′ [32P]-labeled RNA substrate HP21 (kobs, single turnover); type: biochemical; set-up: IRE1α-KR43 comprises the soluble cytoplasmic portion of IRE1α, composed of the kinase and RNase domains plus 43 amino acids of the linker; 6xHis (N, cleaved yes); made in house; host or cells: SF21 insect cells; conditions: for 1/2kmax, obs (IRE1α-KR43 concentration at half-maximal kobs) / Hill coefficient n: RNase activity as a function of IRE1α-KR43 concentration
Chain of IRE1α-KR43 (O75460 465-977 limits assumed): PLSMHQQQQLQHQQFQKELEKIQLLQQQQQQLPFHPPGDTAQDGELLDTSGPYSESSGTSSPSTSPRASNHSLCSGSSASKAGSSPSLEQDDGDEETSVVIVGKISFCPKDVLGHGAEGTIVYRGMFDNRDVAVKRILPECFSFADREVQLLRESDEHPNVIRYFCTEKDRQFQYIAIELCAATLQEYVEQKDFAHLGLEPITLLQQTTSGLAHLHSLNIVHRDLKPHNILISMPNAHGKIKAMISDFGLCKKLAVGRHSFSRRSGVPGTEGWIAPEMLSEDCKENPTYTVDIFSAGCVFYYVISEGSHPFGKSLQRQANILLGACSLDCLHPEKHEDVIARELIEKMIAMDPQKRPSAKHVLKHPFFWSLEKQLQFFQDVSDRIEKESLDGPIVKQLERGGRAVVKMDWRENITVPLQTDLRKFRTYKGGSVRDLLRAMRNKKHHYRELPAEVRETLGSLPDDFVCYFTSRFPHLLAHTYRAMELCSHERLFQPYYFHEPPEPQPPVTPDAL
Experimental: To this end, we modified the molecule by substituting urea-linked and variably m- and p-substituted phenyl groups for the benzimidazole of APY29. Diphenyl urea linkers have previously been used successfully in the design of kinase inhibitors ([Dar et al., 2008]; [Dar and Shokat, 2011]; [Korennykh et al., 2012]). In exploring the addition of this chemotype on the APY29 scaffold, we generated a panel of 10 variants (Figure 1B). Each member of the panel was tested in an RNase activity assay using recombinant IRE1α-KR43 and a labeled short hairpin RNA substrate derived from human XBP1 mRNA. IRE1α-KR43 comprises the soluble cytoplasmic portion of IRE1α, composed of the kinase and RNase domains plus 43 amino acids of the linker that bridges the kinase to its transmembrane domain.
Human IRE1α-KR43 with a hexa-histidine (6xHis) tag in its N-terminus was expressed and purified in SF21 cells as described ([Li et al., 2010]). Cells were lysed in buffer containing 20 mM Tris-HCl, pH 7.5, 600 mM NaCl, 2 mM MgCl2, 3 mM imidazole, 10% glycerol, 1% Triton X-100, 3 mM β-mercaptoethanol, COMPlete protease inhibitors (Roche), and PhosSTOP phosphatase inhibitor cocktail (Roche) and passed through an AVESTIN emulsiflex-C3 3× times for complete lysis. The lysate was cleared using centrifugation at 100,000×g. Clear lysate was allowed to incubate on Ni-NTA agarose (Qiagen) beads for 2 hr before being washed 3× times with buffer containing 20 mM Tris-HCl, pH7.5, 600 mM NaCl, 2 mM MgCl2, 30 mM imidazole, 10% glycerol, and 3 mM β-mercaptoethanol. Protein was eluted from the column by raising the imidazole concentration to 250 mM. The eluate was then passed through a HiTrap desalting column (GE Healthcare). Lastly, the 6xHis was cleaved as described ([Li et al., 2010]) and the resulting protein was then loaded onto a HisTrap HP, 5 × 5 ml column to remove the uncleaved protein. The cleaved protein was then loaded on a Mono-S 5/50 GL column (GE Healthcare), and the eluate was then concentrated to 5 mg/ml and loaded on a Superdex 200 HR 10/300 (GE Healthare) column in buffer containing 20 mM Tris-HCl pH 7.5, 250 mM NaCl, 5% Glycerol and 5 mM tris(2-carboxyethyl)phosphine (TCEP). The pure protein solution was aliquoted and stored at −80°C.

[2] = system: PERK and eIF2α phosphorylation in HEK293T cells; assay: PERK mobility shift and eIF2α phosphorylation by immunoblotting in HEK293T cells; type: cell-based
Experimental: To evaluate effects of IPA on the PERK branch, we measured the phosphorylation state of PERK and eIF2α by Western blotting. […] We also monitored PERK activation by phosphorylation of eIF2α, detected with a phospho-eIF2α-specific antibody (Figure 3C).
Cells were lysed in 50 mM Tris-HCl, 2% SDS, 10% glycerol, 0.01% bromophenol blue, pH 6.8 supplemented with phosphatase inhibitors (Sigma) and protease inhibitors (Roche). 30 μg to 50 μg of total protein was loaded on each lane of 8% or 10% SDS-PAGE gels. The separated proteins were then transferred onto nitrocellulose membranes for immunoblotting. The following antibodies and dilutions were used: anti-β-actin 1:10,000 (A5441, Sigma), anti-total PERK at 1:1000 (C33E10, Cell Signaling Technology), anti-phospho eIF2α at 1:1000 (3597S, Cell Signaling Technology), anti-total eIF2α at 1:1000 (L57A5, Cell Signaling Technology). After overnight incubation with primary antibody, membranes were washed in PBS with 0.05% Tween and incubated in HRP-coupled secondary antibody anti-rabbit (611–1302, Rockland) or anti-mouse (610–1302, Rockland) diluted at 1:5000 in wash buffer. Immunoreactive bands were detected by chemiluminescence.

SMILES	PERK oligomerization (cross-linked dimers, trimers, tetramers) [1]	fold lower enzyme concentration at ½ kmax, obs versus no activator (IRE1α-KR43; compound 20 μM)	1/2kmax, obs (IRE1α-KR43 concentration at half-maximal kobs) (IRE1α-KR43; compound 20 μM)	Hill coefficient n (IRE1α-KR43; compound 20 μM)	fold activation of IRE1α-KR43 RNase activity (IRE1α-KR43; compounds 1 μM, IRE1α-KR43 200 nM, [32P]-labeled HP21)	Tm activation of PERK in the presence of compound ([2]; 4 μM IPA + Tm 2 µg/ml)	PERK phosphorylation (mobility shift), paralleled by eIF2α phosphorylation ([2]; 4 hr, 0.1, 0.5, and 1 µM)	PERK phosphorylation (mobility shift), paralleled by eIF2α phosphorylation ([2]; 4 hr, 2 and 4 μM)	reversibility of PERK inhibition (wash-out) ([2]; IPA wash-out then Tm)	IRE1α activation as a function of enzyme concentration (in words) (IRE1α-KR43; compound 20 μM, versus no-compound control)	IRE1α RNase activation (in words) (IRE1α-KR43; compounds 1 μM, IRE1α-KR43 200 nM, versus DMSO control or cmp6/cmp7)	PERK or eIF2α phosphorylation ([2]; 4 hr, 1 µM)
CSc1ccc(NC(=O)Nc2ccc(Nc3nccc(Nc4cc(C5CC5)[nH]n4)n3)cc2)cc1 [IPA]	significantly increased PERK oligomerization	20 fold	0.43 µM	4.2	900 fold	Tm addition did not activate PERK	induced a shift in the mobility of PERK	severely diminished or not detectable	reversible			
CSc1ccc(NC(=O)Nc2ccc(Nc3nccc(Nc4cc(C5CC5)n(C)n4)n3)cc2)cc1 [IPAx]	showed no effect		8 µM	3.3						did not enhance IRE1α activation	inactive	did not stimulate PERK or eIF2α phosphorylation
